Test results from patent US9174952B2, “Substituted 3-thiazoloamino-propionic acid derivatives and their use as pharmaceuticals” (SANOFI, priority 2011, dated 2015).

Molecular target: T1, Recombinant human cathepsin A (Homo sapiens, UniProt P10619)
T1 construct: Recombinant human cathepsin A (residues 29-480, with a C-terminal 10-His tag); 10-His (C); purchased R&D Systems 1049-SE
T1 sequence (P10619 29-326 limits assumed): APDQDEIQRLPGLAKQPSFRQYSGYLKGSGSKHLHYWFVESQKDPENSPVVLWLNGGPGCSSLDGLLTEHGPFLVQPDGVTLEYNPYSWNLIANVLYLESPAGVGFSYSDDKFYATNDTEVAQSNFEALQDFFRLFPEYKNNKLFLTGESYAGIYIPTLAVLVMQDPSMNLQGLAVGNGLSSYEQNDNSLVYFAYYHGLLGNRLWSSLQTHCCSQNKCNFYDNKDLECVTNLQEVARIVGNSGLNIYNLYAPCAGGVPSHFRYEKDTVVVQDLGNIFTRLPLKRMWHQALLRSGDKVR
T1 sequence (P10619 327-480 limits assumed): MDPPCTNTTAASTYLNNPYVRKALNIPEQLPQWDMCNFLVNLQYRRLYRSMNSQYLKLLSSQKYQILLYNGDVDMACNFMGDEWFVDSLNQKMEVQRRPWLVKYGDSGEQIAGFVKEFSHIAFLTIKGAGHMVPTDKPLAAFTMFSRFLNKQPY
Test: Cathepsin A inhibitory activity
Assay type: biochemical
Conditions: activated recombinant human cathepsin A 833 ng/ml, Bodipy FL-labeled bradykinin substrate 2 μM, pH 5.5, room temperature
Protocol: a) Cathepsin A Inhibitory Activity
Recombinant human cathepsin A (residues 29-480, with a C-terminal 10-His tag; R&D Systems, #1049-SE) was proteolytically activated with recombinant human cathepsin L (R&D Systems, #952-CY). Briefly, cathepsin A was incubated at 10 μg/ml with cathepsin L at 1 μg/ml in activation buffer (25 mM 2-(morpholin-4-yl)-ethanesulfonic acid (MES), pH 6.0, containing 5 mM dithiothreitol (DTT)) for 15 min at 37° C. Cathepsin L activity was then stopped by the addition of the cysteine protease inhibitor E-64 (N-(trans-epoxysuccinyl)-L-leucine-4-guanidinobutylamide; Sigma-Aldrich, # E3132; dissolved in activation buffer/DMSO) to a final concentration of 10 μM.
The activated cathepsin A was diluted in assay buffer (25 mM MES, pH 5.5, containing 5 mM DTT) and mixed with the test compound (dissolved in assay buffer containing (v/v) 3% DMSO) or, in the control experiments, with the vehicle in a multiple assay plate. After incubation for 15 min at room temperature, as substrate then bradykinin carrying an N-terminal ®Bodipy FL (4,4-difluoro-5,7-dimethyl-4-bora-3a,4a-diaza-s-indacene-3-propionyl) label (JPT Peptide Technologies GmbH; dissolved in assay buffer) was added to the mixture. The final concentration of cathepsin A was 833 ng/ml and the final concentration of labeled bradykinin 2 μM. After incubation for 15 min at room temperature the reaction was stopped by the addition of stop buffer (130 mM 2-(4-(2-hydroxy-ethyl)-piperazin-1-yl)-ethanesulfonic acid, pH 7.4, containing (v/v) 0.013% ®Triton X-100, 0.13% Coating Reagent 3 (Caliper Life Sciences), 6.5% DMSO and 20 μM ebelactone B (Sigma, # E0886)).
Uncleaved substrate and product were then separated by a microfluidic capillary electrophoresis on a LabChip® 3000 Drug Discovery System (12-Sipper-Chip; Caliper Life Sciences) and quantified by determination of the respective peak areas. Substrate turnover was calculated by dividing product peak area by the sum of substrate and product peak areas, and the enzyme activity and the inhibitory effect of the test compound thus quantified. From the percentage of inhibition of cathepsin A activity observed with the test compound at several concentrations, the inhibitory concentration IC50, i.e. the concentration which effects 50% inhibition of enzyme activity was, calculated.

| SMILES | IC50 |
| --- | --- |
| COc1ccc([C@H](CC(=O)O)NC(=O)c2csc(-c3ccc(C(F)(F)F)cc3)n2)cc1 [Example 60, (S)-3-(4-Methoxy-phenyl)-3-{[2-(4-trifluoromethyl-phenyl)-thiazole-4-carbonyl]-amino}-propionic acid] | 14800 nM |
| Cc1ccccc1-c1nc(C(=O)N[C@@H](CC(=O)O)c2ccccc2C(F)(F)F)cs1 [Example 61, (S)-3-[(2-o-Tolyl-thiazole-4-carbonyl)-amino]-3-(2-trifluoromethyl-phenyl)-propionic acid] | 670 nM |
| O=C(O)C[C@H](NC(=O)c1csc(-c2ccccc2)n1)c1ccccc1C(F)(F)F [Example 62, (S)-3-[(2-Phenyl-thiazole-4-carbonyl)-amino]-3-(2-trifluoromethyl-phenyl)-propionic acid] | 2630 nM |
| Cc1ccccc1[C@H](CC(=O)O)NC(=O)c1csc(-c2ccccc2)n1 [Example 63, (S)-3-[(2-Phenyl-thiazole-4-carbonyl)-amino]-3-o-tolyl-propionic acid] | 61 nM |
| COc1cccc([C@H](CC(=O)O)NC(=O)c2csc(-c3cccc(Cl)c3Cl)n2)c1OC [Example 64, (S)-3-{[2-(2,3-Dichloro-phenyl)-thiazole-4-carbonyl]-amino}-3-(2,3-dimethoxy-phenyl)-propionic acid] | 154 nM |
| O=C(O)C[C@H](NC(=O)c1nc(-c2ccccc2)cs1)c1cccc(Cl)c1 [Example 65, (S)-3-(3-Chloro-phenyl)-3-[(4-phenyl-thiazole-2-carbonyl)-amino]-propionic acid] | 917 nM |
| O=C(O)C[C@H](NC(=O)c1csc(-c2cccc(Cl)c2Cl)n1)c1ccccc1C(F)(F)F [Example 66, (S)-3-{[2-(2,3-Dichloro-phenyl)-thiazole-4-carbonyl]-amino}-3-(2-trifluoromethyl-phenyl)-propionic acid] | 619 nM |
| O=C(O)C[C@H](NC(=O)c1csc(-c2cccc(Cl)c2Cl)n1)c1cccc(F)c1 [Example 67, (S)-3-{[2-(2,3-Dichloro-phenyl)-thiazole-4-carbonyl]-amino}-3-(3-fluoro-phenyl)-propionic acid] | 254 nM |
| O=C(O)CC(NC(=O)c1nc(-c2ccccc2)cs1)c1ccccc1Cl (stereo not drawn) [Example 68, 3-(2-Chloro-phenyl)-3-[(4-phenyl-thiazole-2-carbonyl)-amino]-propionic acid] | 455 nM |
| O=C(O)C[C@H](NC(=O)c1nc(-c2ccccc2)cs1)c1ccc(Cl)cc1 [Example 69, (S)-3-(4-Chloro-phenyl)-3-[(4-phenyl-thiazole-2-carbonyl)-amino]-propionic acid] | 627 nM |
| Cc1ccc(-c2nc(C)c(C(=O)N[C@@H](CC(=O)O)c3ccccc3C)s2)cc1 [Example 70, (S)-3-[(4-Methyl-2-p-tolyl-thiazole-5-carbonyl)-amino]-3-o-tolyl-propionic acid] | > 10000 nM |
| Cc1ccccc1[C@H](CC(=O)O)NC(=O)c1csc(-c2cccc(Cl)c2Cl)n1 [Example 71, (S)-3-{[2-(2,3-Dichloro-phenyl)-thiazole-4-carbonyl]-amino}-3-o-tolyl-propionic acid] | 126 nM |
| Cc1ccccc1-c1nc(C(=O)N[C@@H](Cc2ccc(Cl)cc2)C(=O)O)cs1 [Example 72, (S)-3-(4-Chloro-phenyl)-2-[(2-o-tolyl-thiazole-4-carbonyl)-amino]-propionic acid] | 16600 nM |
| O=C(O)C[C@H](NC(=O)c1csc(-c2ccccc2Cl)n1)c1cccc(Cl)c1Cl [Example 73, (S)-3-{[2-(2-Chloro-phenyl)-thiazole-4-carbonyl]-amino}-3-(2,3-dichloro-phenyl)-propionic acid] | 70 nM |
| COc1cccc([C@H](CC(=O)O)NC(=O)c2csc(-c3ccccc3Cl)n2)c1OC [Example 74, (S)-3-{[2-(2-Chloro-phenyl)-thiazole-4-carbonyl]-amino}-3-(2,3-dimethoxy-phenyl)-propionic acid] | 111 nM |
| O=C(O)C[C@H](NC(=O)c1csc(-c2ccccc2Cl)n1)c1ccc(Cl)cc1Cl [Example 75, (S)-3-{[2-(2-Chloro-phenyl)-thiazole-4-carbonyl]-amino}-3-(2,4-dichloro-phenyl)-propionic acid] | 288 nM |
| O=C(O)C[C@H](NC(=O)c1csc(-c2ccccc2Cl)n1)c1ccccc1F [Example 76, (S)-3-{[2-(2-Chloro-phenyl)-thiazole-4-carbonyl]-amino}-3-(2-fluoro-phenyl)-propionic acid] | 658 nM |
| O=C(O)C[C@H](NC(=O)c1csc(-c2ccccc2Cl)n1)c1ccccc1C(F)(F)F [Example 77, (S)-3-{[2-(2-Chloro-phenyl)-thiazole-4-carbonyl]-amino}-3-(2-trifluoromethyl-phenyl)-propionic acid] | 712 nM |
| O=C(O)C[C@H](NC(=O)c1csc(-c2ccccc2Cl)n1)c1cccc(F)c1 [Example 78, (S)-3-{[2-(2-Chloro-phenyl)-thiazole-4-carbonyl]-amino}-3-(3-fluoro-phenyl)-propionic acid] | 257 nM |
| COc1cccc([C@H](CC(=O)O)NC(=O)c2csc(-c3ccccc3Cl)n2)c1 [Example 79, (S)-3-{[2-(2-Chloro-phenyl)-thiazole-4-carbonyl]-amino}-3-(3-methoxy-phenyl)-propionic acid] | 705 nM |
| O=C(O)C[C@H](NC(=O)c1csc(-c2ccccc2Cl)n1)c1ccc(F)cc1 [Example 80, (S)-3-{[2-(2-Chloro-phenyl)-thiazole-4-carbonyl]-amino}-3-(4-fluoro-phenyl)-propionic acid] | 148 nM |
| O=C(N[C@@H](Cc1ccc(Cl)cc1)C(=O)O)c1csc(-c2ccccc2Cl)n1 [Example 81, (S)-3-(4-Chloro-phenyl)-2-{[2-(2-chloro-phenyl)-thiazole-4-carbonyl]-amino}-propionic acid] | > 10000 nM |
| Cc1ccccc1[C@H](CC(=O)O)NC(=O)c1csc(-c2ccccc2Cl)n1 [Example 82, (S)-3-{[2-(2-Chloro-phenyl)-thiazole-4-carbonyl]-amino}-3-o-tolyl-propionic acid] | 30 nM |
| O=C(O)C[C@H](NC(=O)c1csc(-c2ccccc2Cl)n1)c1ccccc1 [Example 83, (S)-3-{[2-(2-Chloro-phenyl)-thiazole-4-carbonyl]-amino}-3-phenyl-propionic acid] | 186 nM |
| O=C(O)C[C@H](NC(=O)c1csc(-c2ccccc2F)n1)c1ccccc1C(F)(F)F [Example 84, (S)-3-{[2-(2-Fluoro-phenyl)-thiazole-4-carbonyl]-amino}-3-(2-trifluoromethyl-phenyl)-propionic acid] | 1350 nM |
| COc1cccc([C@H](CC(=O)O)NC(=O)c2csc(-c3ccccc3F)n2)c1 [Example 85, (S)-3-{[2-(2-Fluoro-phenyl)-thiazole-4-carbonyl]-amino}-3-(3-methoxy-phenyl)-propionic acid] | 878 nM |
| COc1ccc([C@H](CC(=O)O)NC(=O)c2csc(-c3ccccc3F)n2)cc1 [Example 86, (S)-3-{[2-(2-Fluoro-phenyl)-thiazole-4-carbonyl]-amino}-3-(4-methoxy-phenyl)-propionic acid] | 975 nM |
| Cc1ccccc1[C@H](CC(=O)O)NC(=O)c1csc(-c2ccccc2F)n1 [Example 87, (S)-3-{[2-(2-Fluoro-phenyl)-thiazole-4-carbonyl]-amino}-3-o-tolyl-propionic acid] | 117 nM |
| O=C(O)C[C@H](NC(=O)c1csc(-c2ccccc2F)n1)c1ccccc1 [Example 88, (S)-3-{[2-(2-Fluoro-phenyl)-thiazole-4-carbonyl]-amino}-3-phenyl-propionic acid] | 923 nM |
| O=C(O)C[C@H](NC(=O)c1csc(-c2cccc(Cl)c2)n1)c1cccc(Cl)c1Cl [Example 89, (S)-3-{[2-(3-Chloro-phenyl)-thiazole-4-carbonyl]-amino}-3-(2,3-dichloro-phenyl)-propionic acid] | 1020 nM |
